We go through two compounds from patent US11782064B2, “Methods for simultaneous measurement of multiple biological signals from spectrally identical fluorescent reporters” (Massachusetts Institute of Technology, priority 2019, dated 2023).

Each structure is given as a SMILES string.

The experiment relates to cultured mouse hippocampal neurons. Kind of experiment: Multiplexed imaging of four or five reporters under forskolin, PMA or DHPG. It is filed as cell-based. As to the method: Live neuron imaging was performed on a spinning disk confocal microscope (a Yokogawa® CSU-W1 Confocal Scanner Unit on a Nikon® Eclipse T1 microscope) equipped with a 40×1.15 NA water immersion objective (Nikon® MRD77410) and a Zyla® PLUS 4.2 Megapixel camera controlled by NIS-Elements® AR software. The filter set for GFP was used for imaging GFP intensity-based reporters (GCaMP6f and cAMPr), and the filter set for GFP and the 405 nm excitation filter was used for imaging 488 nm/405 nm excitation ratiometric reporters (ExRaiAKAR and ExRaiCKAR). The filter set for RFP was used for imaging RFP intensity-based reporters (RAB_EKARev). For electrophysiological characterizations of GCaMP6f and S1-GCaMP6f (FIGS. 8D-G, 9A-Q), neurons were recorded in the GFP emission channel at a single focal plane at 20 milliseconds per frame (50 Hz). In the characterization and spatially multiplexed imaging experiments in FIGS. 9R-V, 10D-10G, 10M-10O, neurons were recorded in the GFP emission channel at a single focal plane at 50 milliseconds per frame (20 Hz). […]

Consider `N[C@H](C(=O)O)c1cc(O)cc(O)c1` [DHPG, (S)-3,5-Dihydroxyphenylglycine], for which, under “100 μM DHPG for 3 minutes”, the “signaling activities induced in neurons” value was “produced increases in cAMP, PKA, PKC, and ERK levels”.
As to `CCCCCCCCCCCCCC(=O)O[C@@H]1[C@@H](C)[C@@]2(O)[C@@H](C=C(CO)C[C@]3(O)C(=O)C(C)=C[C@@H]23)[C@@H]2C(C)(C)[C@]12OC(C)=O` [PMA, phorbol 12-myristate 13-acetate], the “signaling activities induced in neurons” value (100 ng/mL PMA for 3 minutes) is on record as “increases of PKC activity”.
